ChEMBL document CHEMBL1201862, “PubChem BioAssay data set” (2004)
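Cells were grown in 96-well plates and exposed to each compound for 48 hours at five concentrations; endpoints were interpolated linearly between bracketing concentrations, or set to the highest concentration if not reached. GI50 = concentration required for 50% inhibition of growth.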 Activity calls are given as the source filed them. No stated cut-off is given here; in the data, active = GI50 up to about 1.1 µM and inactive = higher.

Columns and labels:
Test in all cases: NCI tumour cell line growth inhibition, 48 h
A549 = tested on: A549
NCI-H460 = tested on: NCI-H460
HCT-116 = tested on: HCT-116
SK-MEL-5 = tested on: SK-MEL-5
SR = tested on: SR
MOLT-4 = tested on: MOLT-4
KM-20L2 = tested on: KM-20L2
OVCAR-5 = tested on: OVCAR-5
COLO 205 = tested on: COLO 205
UACC-62 = tested on: UACC-62
DLD-1 = tested on: DLD-1
SK-OV-3 = tested on: SK-OV-3
M14 = tested on: M14
CAKI-1 = tested on: CAKI-1
HCT-15 = tested on: HCT-15
NCI-H23 = tested on: NCI-H23
UO-31 = tested on: UO-31
786-0 = tested on: 786-0
SNB-75 = tested on: SNB-75
NCI-H226 = tested on: NCI-H226
OVCAR-4 = tested on: OVCAR-4
OVCAR-3 = tested on: OVCAR-3
SF-268 = tested on: SF-268
Malme-3M = tested on: Malme-3M
RXF 393 = tested on: RXF 393
K562 = tested on: K562
SNB-19 = tested on: SNB-19
M19-MEL = tested on: M19-MEL
DMS-273 = tested on: DMS-273
HT-29 = tested on: HT-29
TK-10 = tested on: TK-10
IGROV-1 = tested on: IGROV-1
EKVX = tested on: EKVX
SN12C = tested on: SN12C
NCI-H522 = tested on: NCI-H522
HOP-18 = tested on: HOP-18
ACHN = tested on: ACHN
OVCAR-8 = tested on: OVCAR-8
HOP-62 = tested on: HOP-62
SK-MEL-28 = tested on: SK-MEL-28
UACC-257 = tested on: UACC-257
SW-620 = tested on: SW-620
LXFL 529 = tested on: LXFL 529
LOX IMVI = tested on: LOX IMVI
KM12 = tested on: KM12
HCC 2998 = tested on: HCC 2998
HL-60 = tested on: HL-60
U-251 = tested on: U-251
SF-295 = tested on: SF-295
SK-MEL-2 = tested on: SK-MEL-2
CCRF-CEM = tested on: CCRF-CEM
HOP-92 = tested on: HOP-92
SF-539 = tested on: SF-539
SNB-78 = tested on: SNB-78
DMS-114 = tested on: DMS-114
A498 = tested on: A498
RPMI-8226 = tested on: RPMI-8226

SMILES: COc1cccc(C(=O)O)c1Cc1cccc2ccccc12
- GI50 (A549): > 100 µM (inactive)
- GI50 (NCI-H460): > 100 µM (inactive)
- GI50 (HCT-116): > 100 µM (inactive)
- GI50 (SK-MEL-5): > 100 µM (inactive)
- GI50 (SR): > 100 µM (inactive)
- GI50 (MOLT-4): > 100 µM (inactive)
- GI50 (KM-20L2): > 100 µM (inactive)
- GI50 (OVCAR-5): > 100 µM (inactive)
- GI50 (COLO 205): > 100 µM (inactive)
- GI50 (UACC-62): > 100 µM (inactive)
- GI50 (DLD-1): > 100 µM (inactive)
- GI50 (SK-OV-3): > 100 µM (inactive)
- GI50 (M14): > 100 µM (inactive)
- GI50 (CAKI-1): > 100 µM (inactive)
- GI50 (HCT-15): > 100 µM
- GI50 (NCI-H23): > 100 µM (inactive)
- GI50 (UO-31): > 100 µM (inactive)
- GI50 (786-0): > 100 µM (inactive)
- GI50 (SNB-75): > 100 µM (inactive)
- GI50 (NCI-H226): > 100 µM (inactive)
- GI50 (OVCAR-4): > 100 µM (inactive)
- GI50 (OVCAR-3): > 100 µM (inactive)
- GI50 (SF-268): > 100 µM (inactive)
- GI50 (Malme-3M): > 100 µM (inactive)
- GI50 (RXF 393): > 100 µM (inactive)
- GI50 (K562): > 100 µM (inactive)
- GI50 (SNB-19): > 100 µM (inactive)
- GI50 (M19-MEL): > 100 µM (inactive)
- GI50 (DMS-273): > 100 µM (inactive)
- GI50 (HT-29): > 100 µM (inactive)
- GI50 (TK-10): > 100 µM (inactive)
- GI50 (IGROV-1): > 100 µM (inactive)
- GI50 (EKVX): > 100 µM (inactive)
- GI50 (SN12C): > 100 µM (inactive)
- GI50 (NCI-H522): > 100 µM (inactive)
- GI50 (HOP-18): > 100 µM (inactive)
- GI50 (ACHN): > 100 µM (inactive)
- GI50 (OVCAR-8): 99.8 µM (inactive)
- GI50 (HOP-62): > 100 µM (inactive)
- GI50 (SK-MEL-28): > 100 µM (inactive)
- GI50 (UACC-257): > 100 µM (inactive)
- GI50 (SW-620): > 100 µM (inactive)
- GI50 (LXFL 529): > 100 µM (inactive)
- GI50 (LOX IMVI): > 100 µM (inactive)
- GI50 (KM12): > 100 µM (inactive)
- GI50 (HCC 2998): > 100 µM (inactive)
- GI50 (HL-60): > 100 µM (inactive)
- GI50 (U-251): > 100 µM (inactive)
- GI50 (SF-295): > 100 µM (inactive)
- GI50 (SK-MEL-2): > 100 µM (inactive)
- GI50 (CCRF-CEM): > 100 µM (inactive)

SMILES: CN(C)CCNC(=O)c1cccc2ccc(-c3ccncc3)nc12
- GI50 (A549): 0.817 µM (active)
- GI50 (NCI-H460): 0.403 µM (active)
- GI50 (HCT-116): 1.27 µM (inactive)
- GI50 (SK-MEL-5): 1.55 µM (inactive)
- GI50 (MOLT-4): 0.306 µM (active)
- GI50 (OVCAR-5): 1.93 µM (inactive)
- GI50 (COLO 205): 1.3 µM (inactive)
- GI50 (UACC-62): 1.8 µM (inactive)
- GI50 (DLD-1): 2.48 µM (inactive)
- GI50 (SK-OV-3): 2.22 µM (inactive)
- GI50 (M14): 4.11 µM (inactive)
- GI50 (CAKI-1): 1.52 µM (inactive)
- GI50 (HCT-15): 1.44 µM
- GI50 (NCI-H23): 1.8 µM (inactive)
- GI50 (UO-31): 1.94 µM (inactive)
- GI50 (786-0): 2.72 µM (inactive)
- GI50 (SNB-75): 3.2 µM (inactive)
- GI50 (OVCAR-4): 2.79 µM (inactive)
- GI50 (OVCAR-3): 2.78 µM (inactive)
- GI50 (SF-268): 3.79 µM (inactive)
- GI50 (RXF 393): 2.36 µM (inactive)
- GI50 (K562): 2.58 µM (inactive)
- GI50 (HOP-92): 2.16 µM (inactive)
- GI50 (SNB-19): 2.81 µM (inactive)
- GI50 (M19-MEL): 1.89 µM (inactive)
- GI50 (DMS-273): 1.1 µM (active)
- GI50 (HT-29): 2.54 µM (inactive)
- GI50 (TK-10): 2.21 µM (inactive)
- GI50 (SF-539): 1.45 µM (inactive)
- GI50 (IGROV-1): 1.47 µM (inactive)
- GI50 (SNB-78): 7.24 µM (inactive)
- GI50 (EKVX): 2.47 µM (inactive)
- GI50 (DMS-114): 2.96 µM (inactive)
- GI50 (SN12C): 1.61 µM (inactive)
- GI50 (HOP-18): 3.47 µM (inactive)
- GI50 (ACHN): 1.17 µM (inactive)
- GI50 (OVCAR-8): 2.26 µM (inactive)
- GI50 (HOP-62): 1.66 µM (inactive)
- GI50 (SK-MEL-28): 4.86 µM (inactive)
- GI50 (UACC-257): 2.06 µM (inactive)
- GI50 (SW-620): 1.33 µM (inactive)
- GI50 (A498): 1.3 µM (inactive)
- GI50 (LOX IMVI): 1.39 µM (inactive)
- GI50 (KM12): 3.67 µM (inactive)
- GI50 (HCC 2998): 1.96 µM (inactive)
- GI50 (HL-60): 0.877 µM (active)
- GI50 (U-251): 1.63 µM (inactive)
- GI50 (SF-295): 2.88 µM (inactive)
- GI50 (SK-MEL-2): 4.02 µM (inactive)
- GI50 (CCRF-CEM): 1.87 µM (inactive)

SMILES: CO[C@H](C(=O)O[C@H]1C(=O)N2CC[C@@H]3CCC[C@H]1C32C)c1ccccc1 (some centres not stated)
- GI50 (A549): > 100 µM (inactive)
- GI50 (NCI-H460): > 100 µM (inactive)
- GI50 (HCT-116): > 100 µM (inactive)
- GI50 (SK-MEL-5): > 100 µM (inactive)
- GI50 (SR): > 100 µM (inactive)
- GI50 (MOLT-4): > 100 µM (inactive)
- GI50 (KM-20L2): > 100 µM (inactive)
- GI50 (OVCAR-5): > 100 µM (inactive)
- GI50 (COLO 205): > 100 µM (inactive)
- GI50 (UACC-62): > 100 µM (inactive)
- GI50 (DLD-1): > 100 µM (inactive)
- GI50 (SK-OV-3): > 100 µM (inactive)
- GI50 (M14): > 100 µM (inactive)
- GI50 (CAKI-1): > 100 µM (inactive)
- GI50 (HCT-15): > 10 µM
- GI50 (NCI-H23): > 100 µM (inactive)
- GI50 (UO-31): > 100 µM (inactive)
- GI50 (786-0): > 100 µM (inactive)
- GI50 (NCI-H226): > 100 µM (inactive)
- GI50 (OVCAR-4): > 100 µM (inactive)
- GI50 (OVCAR-3): > 100 µM (inactive)
- GI50 (SF-268): > 100 µM (inactive)
- GI50 (Malme-3M): > 100 µM (inactive)
- GI50 (RXF 393): > 100 µM (inactive)
- GI50 (K562): > 100 µM (inactive)
- GI50 (SNB-19): > 100 µM (inactive)
- GI50 (M19-MEL): > 100 µM (inactive)
- GI50 (HT-29): > 100 µM (inactive)
- GI50 (SF-539): > 100 µM (inactive)
- GI50 (IGROV-1): > 100 µM (inactive)
- GI50 (RPMI-8226): > 100 µM (inactive)
- GI50 (SNB-78): > 100 µM (inactive)
- GI50 (EKVX): > 100 µM (inactive)
- GI50 (DMS-114): > 100 µM (inactive)
- GI50 (SN12C): > 100 µM (inactive)
- GI50 (NCI-H522): 66.2 µM (inactive)
- GI50 (ACHN): > 100 µM (inactive)
- GI50 (OVCAR-8): > 100 µM (inactive)
- GI50 (HOP-62): > 100 µM (inactive)
- GI50 (SK-MEL-28): > 100 µM (inactive)
- GI50 (UACC-257): > 100 µM (inactive)
- GI50 (SW-620): > 100 µM (inactive)
- GI50 (LXFL 529): > 100 µM (inactive)
- GI50 (LOX IMVI): > 100 µM (inactive)
- GI50 (KM12): > 100 µM (inactive)
- GI50 (HCC 2998): 60.8 µM (inactive)
- GI50 (HL-60): > 100 µM (inactive)
- GI50 (U-251): > 100 µM (inactive)
- GI50 (SF-295): > 100 µM (inactive)
- GI50 (SK-MEL-2): > 100 µM (inactive)
- GI50 (CCRF-CEM): > 100 µM (inactive)
